{"source": "patent US7902399B2", "about": "“Fatty acids analogous” (Thia Medica AS, priority 2000, dated 2011)", "origin": "cited, not measured here", "details": "rat"}
{"smiles": "CCCCCCCCCCCCCCSCC(=O)O", "note": "[TTA]", "values": [{"measurement": "metabolite formation in vivo (Δ9-desaturase)", "value": "a desaturated product of TTA is formed in vivo"}]}
